Experiments:
[1] = system: denervated supersensitive postsynaptic dopamine receptors; test: In vivo functional test: contralateral circling in rats with unilateral 6-hydroxydopamine lesions of the substantia nigra; set-up: species or system rat; conditions: for ED50: contralateral circling, rats, unilateral 6-hydroxydopamine lesion
From the text: Dopamine agonists produce contralateral circling behavior in rats in which unilateral lesions of the substantial nigra are made by prior injection of 6-hydroxydopamine. The circling is thought to be mediated by stimulation of denervated supersensitive postsynaptic dopamine receptors (Marshall and Ungerstedt, 1977, Eur. J. Pharmacol., 41:361-367).

[2] = target: Dopamine D1 receptor (Bos taurus, UniProt Q95136); test: biochemical; assay type: binding, bovine; conditions: bovine caudate membranes, 3H-SCH23390, 37° C., 15 min; read-out: D1 K1
Dopamine D1 receptor, sequence (Q95136 whole entry): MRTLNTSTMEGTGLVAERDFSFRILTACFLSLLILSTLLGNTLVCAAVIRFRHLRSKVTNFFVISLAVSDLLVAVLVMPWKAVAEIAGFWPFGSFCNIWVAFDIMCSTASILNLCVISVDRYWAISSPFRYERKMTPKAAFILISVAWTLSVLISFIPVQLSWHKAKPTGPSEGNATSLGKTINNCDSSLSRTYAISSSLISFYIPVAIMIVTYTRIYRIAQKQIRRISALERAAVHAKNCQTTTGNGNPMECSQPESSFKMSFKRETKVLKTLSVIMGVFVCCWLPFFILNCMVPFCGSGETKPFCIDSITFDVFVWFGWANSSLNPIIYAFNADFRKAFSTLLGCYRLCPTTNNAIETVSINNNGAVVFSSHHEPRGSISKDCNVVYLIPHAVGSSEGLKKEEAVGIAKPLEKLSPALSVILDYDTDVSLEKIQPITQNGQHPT
Experimental: (§1) Membranes were prepared using a Brinkmann Polytron and collected by centrifugation. Membrane sources were bovine caudate (D2,D1) or rat cortex (α2). The membranes were washed, resuspended, and incubated at 37° C. for 30 min. in either the presence (rat cortex) of 1 μ/ml adenosine deaminase or absence (bovine caudate) of 0.1 μ/ml adenosine deaminase. Membranes were centrifuged, washed once and frozen at -70° C. until used. Immediately before use, the membranes were thawed, washed once, and resuspended to a final concentration of 0.5-2 mg/ml. Assays were initiated by addition of membranes. For D2 and D1 assays, the radioligands and conditions used were ^3 H-Spiperone (RT, 75 min.) and ^3 H-SCH23390 (37° C., 15 min.), respectively. For α2 assays, ^3 H-PAC (RT, 30 min.) was used Assays were terminated by filtration using a Brandel cell harvester over Whatman GF/B filters that had been pretreated with 0.1% polyethylenimine. […]

[3] = target: Dopamine D2 receptor (Bos taurus, UniProt P20288); test: biochemical; assay type: binding, bovine; conditions: for Ki: bovine caudate membranes, 3H-Spiperone, RT, 75 min, read-out: D2 K1
Dopamine D2 receptor, sequence (P20288 whole entry): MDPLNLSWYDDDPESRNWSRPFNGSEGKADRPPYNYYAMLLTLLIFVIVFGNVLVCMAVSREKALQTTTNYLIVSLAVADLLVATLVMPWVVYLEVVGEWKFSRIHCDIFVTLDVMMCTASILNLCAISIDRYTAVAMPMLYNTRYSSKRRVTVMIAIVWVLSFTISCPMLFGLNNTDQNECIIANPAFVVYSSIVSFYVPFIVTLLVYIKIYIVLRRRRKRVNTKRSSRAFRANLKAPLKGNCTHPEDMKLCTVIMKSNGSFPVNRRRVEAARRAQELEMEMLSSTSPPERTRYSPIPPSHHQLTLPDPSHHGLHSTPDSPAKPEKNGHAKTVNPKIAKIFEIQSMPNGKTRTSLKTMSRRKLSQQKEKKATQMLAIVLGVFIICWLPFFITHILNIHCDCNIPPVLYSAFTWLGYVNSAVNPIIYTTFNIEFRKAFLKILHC
Experimental: as §1

[4] = target: dopamine D2 receptor (Mus musculus, UniProt P61168); test: biochemical; assay type: biochemical; conditions: for EC50: concentration that produces 50% of the maximal inhibition of twitch, mouse vas deferens, read-out: D2 A50
dopamine D2 receptor, sequence (P61168 whole entry): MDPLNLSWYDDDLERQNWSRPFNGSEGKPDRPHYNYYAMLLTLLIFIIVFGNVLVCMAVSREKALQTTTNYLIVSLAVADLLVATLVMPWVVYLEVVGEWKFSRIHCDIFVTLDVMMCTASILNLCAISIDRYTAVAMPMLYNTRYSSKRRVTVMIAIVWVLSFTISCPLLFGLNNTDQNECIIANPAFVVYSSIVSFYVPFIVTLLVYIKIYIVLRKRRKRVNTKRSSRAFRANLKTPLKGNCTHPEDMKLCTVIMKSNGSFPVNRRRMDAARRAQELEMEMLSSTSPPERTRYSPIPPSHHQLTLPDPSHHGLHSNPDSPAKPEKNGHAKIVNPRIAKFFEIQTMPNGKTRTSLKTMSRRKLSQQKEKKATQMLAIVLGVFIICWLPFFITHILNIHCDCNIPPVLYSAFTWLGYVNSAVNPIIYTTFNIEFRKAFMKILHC
Experimental: Vasa deferentia from male BALB/C mice weighing approximately 30 g were removed and placed in isolated organ baths containing magnesium-free modified Krebs-Henseleit solution which was gassed with 95% O2 and 5% CO2 and maintained at 37° C. Tissues were set up under resting tension of 0.5 g and stimulated electrically at 60 volts, 0.1 Hz and 1 msec duration to produce a series of twitch responses. Tissues were pretreated with propranolol (1 μM) to block β-adrenoceptors, idazoxan (3 μM) to block α2 -adrenoceptors receptors, and ascorbic acid (100 μM) for 60 min before the addition of test compound.

[5] = target: T1, adrenergic α2 receptor (Rattus norvegicus, UniProt P22909); test: Adrenergic α2 in vitro functional test (rat vas deferens, inhibition of twitch); assay type: biochemical; conditions: concentration that produces 50% of the maximal inhibition of twitch; rat vas deferens; read-out: a2 A50
T1 sequence (P22909 1-465): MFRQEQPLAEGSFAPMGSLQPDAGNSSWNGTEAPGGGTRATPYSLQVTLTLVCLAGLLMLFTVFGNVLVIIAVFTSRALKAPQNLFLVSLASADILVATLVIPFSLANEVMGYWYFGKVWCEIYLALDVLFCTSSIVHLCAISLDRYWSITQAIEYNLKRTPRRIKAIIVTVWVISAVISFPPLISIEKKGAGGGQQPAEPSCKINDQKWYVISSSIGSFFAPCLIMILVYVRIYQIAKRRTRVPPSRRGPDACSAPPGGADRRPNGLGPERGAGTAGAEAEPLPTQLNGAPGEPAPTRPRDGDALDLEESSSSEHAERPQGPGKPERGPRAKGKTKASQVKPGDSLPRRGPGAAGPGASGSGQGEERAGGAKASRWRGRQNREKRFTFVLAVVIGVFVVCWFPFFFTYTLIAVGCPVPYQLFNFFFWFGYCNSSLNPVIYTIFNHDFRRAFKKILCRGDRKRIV
Experimental: Vasa deferentia from male Sprague-Dawley rats weighing between 150-250 g were removed and placed in isolated organ baths containing Krebs-Henseleitsolution under a resting tension of 1 g. All other set up conditions were identical to those used for the mouse was deferens. Tissues were pretreated with propranolol (1 μM), ascorbic acid (100 μM) and the α1 -adrenergic antagonist prazosin (0.3 or 1 μM) for 60 min before the addition of test compound.

Row | Compound | Ki [2] [nM] | dopamine D2 receptor affinity (in words) [3] | Selectivity Ratio (D1 K1/D2 K1) [3] | D2 receptor selectivity (in words) ([3]; D2 vs. D1) | Ki [3] [nM] | D2 receptor specificity (in words) ([4]; D2 vs. α2) | Specificity Ratio (a2 A50/D2 A50) [4] | EC50 [4] [nM] | EC50 [5] [nM] | ED50 [1] [µmol/kg] | in vivo functional potency (in words) ([1]; rat, in vivo) | dopamine D2 receptor in vitro functional activity/potency (in words) [4]
1 | CCCN(CCOC(C)(C)C)[C@H]1CCc2c(ccc(O)c2O)C1 [Example 9, (S)-6-[[2-(1,1-dimethylethoxy)ethyl]propylamino]-5,6,7,8-tetrahydro-1,2-naphthalenediol] | 8910 | high affinity | 166 | high affinity, selectivity | 54 | high affinity, selectivity, specificity | 1620 | 0.089 | 144 | 0.004 | high in vivo functional potency | high affinity, selectivity, specificity, and functional potency
2 | CCCCCOCCN(CCC)[C@H]1CCc2c(ccc(O)c2O)C1 [Example 10] | 2450 | – | 46 | – | 54 | – | 1000 | 0.093 | 93.3 | 0.030 | – | –
3 | CCCN(CCCOC(C)C)[C@H]1CCc2c(ccc(O)c2O)C1 [Example 13] | 5750 | – | 113 | – | 51 | – | 914 | 0.102 | 93.3 | 0.006 | – | –
4 | CCCN(CCC1CCOC1)[C@H]1CCc2c(ccc(O)c2O)C1 (some centres unmarked) [Example 14] | 6610 | – | 34 | – | 195 | – | 71 | 0.209 | 14.8 | 0.030 | – | –
5 | CCCN(CC1CCOC1)[C@H]1CCc2c(ccc(O)c2O)C1 (some centres unmarked) [Example 15] | 1100 | – | 1 | – | 1100 | – | 118 | 0.141 | 16.6 | 0.009 | – | –
6 | CCCN(CCOC1CC1)[C@H]1CCc2c(O)cccc2C1 [Example 17] | 9770 | – | 21 | – | 468 | – | > 17000 | 0.589 | > 10000 | 0.009 | – | –

Further lines, with some results ahead:

Row | Ki [2] [nM] | dopamine D2 receptor affinity (in words) [3] | Selectivity Ratio (D1 K1/D2 K1) [3] | D2 receptor selectivity (in words) ([3]; D2 vs. D1) | Ki [3] [nM] | D2 receptor specificity (in words) ([4]; D2 vs. α2) | Specificity Ratio (a2 A50/D2 A50) [4] | EC50 [4] [nM] | EC50 [5] [nM] | Compound | ED50 [1] [µmol/kg] | in vivo functional potency (in words) ([1]; rat, in vivo) | dopamine D2 receptor in vitro functional activity/potency (in words) [4]
7 | 4270 | – | 141 | – | 30 | – | 62 | 1.29 | 79.4 | CCCN(CCC1CCCO1)[C@H]1CCc2c(ccc(O)c2O)C1 (some centres unmarked) [Example 11] | 0.010 | – | –
8 | 5490 | – | 224 | – | 25 | – | 1000 | 0.2 | 199 | CCCN(CCC1CCCCO1)[C@H]1CCc2c(ccc(O)c2O)C1 (some centres unmarked) [Example 12] | 0.030 | – | –
9 | 7940 | – | 129 | – | 62 | – | > 19500 | 0.513 | > 10000 | CCCN(CCOC1CCCC1)[C@H]1CCc2c(O)cccc2C1 [Example 16] | 0.090 | – | –
10 | 8910 | – | 45 | – | 200 | – | > 14800 | 0.676 | > 10000 | CCCN(CCOC1CCC1)[C@H]1CCc2c(O)cccc2C1 [Example 18] | 0.020 | – | –
11 | 1510 | – | 14 | – | 110 | – | 6310 | 0.275 | 1740 | CCCN(CCC1CCCO1)[C@H]1CCc2c(O)cccc2C1 (some centres unmarked) [Example 19] | 0.020 | – | –
12 | 7080 | – | 7 | – | 1070 | – | 191 | 1 | 190 | CCCN(CC1CCCCO1)[C@H]1CCc2c(O)cccc2C1 (some centres unmarked) [Example 20] | 0.030 | – | –

— patent US5382596A, “Substituted 2-aminotetralins” (priority 1993, dated 1995)
